Legend:
[1] = system: PC3M reporter cell line stably expressing the PTB-GFP; test: ATP quantitation assay (ATPLite); type: cell-based, human; settings: Homo sapiens, PC-3M, Table 4, PC3M cells, 24 hrs incubation
Method: This follow-up assay was conducted to measure the effect of compounds on cell health by measuring ATP levels (ATPLite™). ATPLite™ is an ATP monitoring system based on firefly (Photinus pyralis) luciferase. The level of ATP in a metabolically active cell is a general marker for its viability. ATP levels are often reduced during necrosis or apoptosis. In this assay, the luciferase enzyme catalyzes the conversion of the added substrate D-luciferin to oxyluciferin and light with ATP. Thus, the emitted light is proportional to the ATP concentration. For this assay, the highly metastatic PC3M reporter cell line stably expressing the PTB-GFP was provided by Professor Sui Huang of Northwestern University. The media and cell culture reagents were purchased from Invitrogen (Carlsbad, Calif.), ATPLite™ came from PerkinElmer.

[2] = system: PC3M cell line that stably expresses GFP-PTB to mark PNCs; test: High content assay for PNC detection (reduction of PNC prevalence); type: cell-based, human; settings: Table 4, PC3M GFP-PTB cells, 16 hrs incubation; for IC50: Homo sapiens, PC-3M
Text: The quantitative output for this assay is the reduction of PNC prevalence. The PNC can be detected in living cells by the expression of a green fluorescent protein (GFP) tagged to the PNC localized protein, PTB. A PC3M cell line was used that stably expresses GFP-PTB to mark PNCs. This method eliminates the need for immunofluorescent staining.
The IN Cell Analyzer 1000 automated fluorescent imaging system (GE Healthcare, Piscataway, N.J.) was used for automated image acquisition. […] The instrument acquired images of each well in a 1536-well plate with a laser-based autofocus system. To score PNC prevalence in a high-content throughput, the Multi-Target Analysis (MTA) algorithm (GE Healthcare, Investigator v3.5) to identify individual cells and granules (PNCs) within these cells was used. The nucleus was segmented via a region growing method (50 μm^2 minimum area) with light shading and noise removal to allow “touching” nuclei to be separated. Granules in the nucleus (PNCs) were segmented using a multiscale top hat method, which measures granules of 1 to 2 μm in size and used a smart masking method to identify the boundaries of each segmented granule. The algorithm was optimized and validated using positive and negative controls (50 μM camptothecin and DMSO, respectively). In particular, the MTA algorithm allows for the identification of multiple subcellular compartments and organelles (or granules) within those compartments. In this instance, the algorithm's capability to identify objects within the same color channel that only differ in size or fluorescent intensity was utilized. Also, the algorithm allows for building complex hierarchical classification systems, using output measures within the algorithm to filter and define subpopulations. For this particular assay, PNC-positive cells were scored when 1 to 3 PNC granules were detected per nucleus. Cells that contained 0 granules were scored as PNC negative, and cells with >3 granules were assumed to be false positives (very few cells have more than 3 PNCs in one focus plane), and were also scored as PNC negative.

Row | Structure (SMILES) | IC50 [1] [µM] | IC50 [2] [nM] | PNC IC50(μM) [2]
1 | CCOC(CCCn1cnc2c(c(-c3ccccc3)c(-c3ccccc3)n2Cc2ccccc2)c1=N)OCC [Compound 31] | 24.1 | 2960 | 
2 | CCOC(CCCn1cnc2c(c(-c3ccccc3)c(-c3ccccc3)n2CCc2ccccc2)c1=N)OCC [Compound 32] | 24.1 | 18700 | 
3 | CCOC(CCCn1cnc2c(c(-c3ccccc3)c(-c3ccccc3)n2Cc2ccc(OC)cc2)c1=N)OCC [Compound 33] | 48.2 | 2960 | 
4 | CCCCn1cnc2c(c(-c3ccccc3)c(-c3ccccc3)n2Cc2ccco2)c1=N [Compound 34] | 20.4 | 1250 | 
5 | CC(C)CCn1cnc2c(c(-c3ccccc3)c(-c3ccccc3)n2Cc2ccco2)c1=N [Compound 35] | 19.9 |  | Inactive
6 | N=c1c2c(-c3ccccc3)c(-c3ccccc3)n(Cc3ccccc3)c2ncn1CCCn1ccnc1 [Compound 36] | 25.7 | 1990 | 
7 | N=c1c2c(-c3ccccc3)c(-c3ccccc3)n(Cc3ccccc3)c2ncn1CC1CCCO1 (stereo not shown) [Compound 38] | 96.1 | 935 | 
8 | N=c1c2c(-c3ccccc3)c(-c3ccccc3)n(CCc3ccccc3)c2ncn1CC1CCCO1 (stereo not shown) [Compound 39] | 48.2 | 4690 | 
9 | COc1ccc(Cn2c(-c3ccccc3)c(-c3ccccc3)c3c(=N)n(CC4CCCO4)cnc32)cc1 (stereo not shown) [Compound 40] | 38.3 | 5900 | 
10 | N=c1c2c(-c3ccccc3)c(-c3ccccc3)n(Cc3ccco3)c2ncn1Cc1ccco1 [Compound 43] | 20.4 | 9960 | 
11 | N=c1c2c(-c3ccccc3)c(-c3ccccc3)n(Cc3ccccc3)c2ncn1Cc1ccccc1 [Compound 44] | 19.9 | 15800 | 
12 | N=c1c2c(-c3ccccc3)c(-c3ccccc3)n(Cc3ccccc3)c2ncn1Cc1ccc2c(c1)OCO2 [Compound 45] | 24.1 | 9350 | 
13 | COc1ccc(CCn2cnc3c(c(-c4ccccc4)c(-c4ccccc4)n3Cc3ccccc3)c2=N)cc1OC [Compound 46] | 24.1 | 14800 | 
14 | N=c1c2c(-c3ccccc3)c(-c3ccccc3)n(CCc3ccccc3)c2ncn1[C@H](CO)Cc1ccccc1 [Compound 48] | 30.4 | 4690 | 
15 | N=c1c2c(-c3ccccc3)c(-c3ccccc3)n(Cc3ccco3)c2ncn1CCN1CCOCC1 [Compound 50] | 32.4 |  | inactive
16 | COC(=O)c1cccc(Cn2cnc3c(c(-c4ccccc4)c(-c4ccccc4)n3CCc3ccccc3)c2=N)c1 [Compound 53] | 24.1 | 29600 | 
17 | CO[C@H]1CC[C@H](n2cnc3c(c(-c4ccccc4)c(-c4ccccc4)n3Cc3ccccc3)c2=N)CC1 [Compound 56] | 19.2 | 9 | 
18 | N=c1c2c(-c3ccccc3)c(-c3ccccc3)n(Cc3ccc(S(N)(=O)=O)cc3)c2ncn1C1CCOCC1 [Compound 57] | 96.1 | 59 | 
19 | COc1ccc(Cn2c(-c3ccccc3)c(-c3ccccc3)c3c(=N)n([C@H]4CC[C@H](O)CC4)cnc32)cc1 [Compound 58] | 24.1 | 118 | 
20 | COc1ccc(Cn2c(-c3ccccc3)c(-c3ccccc3)c3c(=N)n(C4CCOCC4)cnc32)cc1 [Compound 59] | 24.1 | 118 | 
21 | N=c1c2c(-c3ccccc3)c(-c3ccccc3)n(CC3CCCCC3)c2ncn1C1CCOCC1 [Compound 60] | 24.1 | 118 | 
22 | N=c1c2c(-c3ccccc3)c(-c3ccccc3)n(Cc3ccccc3)c2ncn1CCC1CCC(O)CC1 (stereo not shown) [Compound 61] | 24.1 | 118 | 
23 | N=c1c2c(-c3ccccc3)c(-c3ccccc3)n(CCc3ccccc3)c2ncn1C[C@H]1CCCC[C@@H]1O [Compound 62] | 24.1 | 148 | 
24 | N=c1c2c(-c3ccccc3)c(-c3ccccc3)n(Cc3ccccc3)c2ncn1C1CCCC[C@H]1O (stereo partly shown) [Compound 63] | 19.2 | 148 | 
25 | N=c1c2c(-c3ccccc3)c(-c3ccccc3)n(CC3CC3)c2ncn1C1CCOCC1 [Compound 64] | 38.3 | 187 | 

Row | Structure (SMILES) | IC50 [1] [µM] | IC50 [2] [nM] | PNC IC50(μM) [2]
26 | CO[C@H]1CC[C@H](n2cnc3c(c(-c4ccccc4)c(-c4ccccc4)n3CCc3ccccc3)c2=N)CC1 [Compound 65] | 19.2 | 235 | 
27 | N=c1c2c(-c3ccccc3)c(-c3ccccc3)n(Cc3ccccc3)c2ncn1C1CCCC[C@H]1CO (stereo partly shown) [Compound 66] | 76.4 | 296 | 
28 | N=c1c2c(-c3ccccc3)c(-c3ccccc3)n(CCc3ccccc3)c2ncn1CCC1CCC(O)CC1 (stereo not shown) [Compound 67] | 24.1 | 296 | 
29 | N=c1c2c(-c3ccccc3)c(-c3ccccc3)n(CCc3ccccc3)c2ncn1C1CCCC[C@H]1O (stereo partly shown) [Compound 68] | 38.3 | 296 | 
30 | CO[C@H]1CC[C@H](n2cnc3c(c(-c4ccccc4)c(-c4ccccc4)n3Cc3ccc(OC(F)(F)F)cc3)c2=N)CC1 [Compound 69] | 19.2 | 372 | 
31 | N=c1c2c(-c3ccccc3)c(-c3ccccc3)n(Cc3ccc(OC(F)(F)F)cc3)c2ncn1[C@H]1CC[C@H](O)CC1 [Compound 70] | 24.1 | 372 | 
32 | N=c1c2c(-c3ccccc3)c(-c3ccccc3)n(CCc3ccccc3)c2ncn1C1CCOCC1 [Compound 71] | 121 | 372 | 
33 | N=c1c2c(-c3ccccc3)c(-c3ccccc3)n(Cc3ccccc3)c2ncn1CCNc1ccncc1 [Compound 72] | 24.1 | 469 | 
34 | N=c1c2c(-c3ccccc3)c(-c3ccccc3)n(Cc3ccccc3)c2ncn1C[C@@H]1CCCC[C@H]1O [Compound 73] | 24.1 | 590 | 
35 | N=c1c2c(-c3ccccc3)c(-c3ccccc3)n(Cc3ccc(OC(F)(F)F)cc3)c2ncn1CCCO [Compound 74] | 24.1 | 743 | 
36 | N=c1c2c(-c3ccccc3)c(-c3ccccc3)n(Cc3ccc(OC(F)(F)F)cc3)c2ncn1C1CCOCC1 [Compound 75] | 24.1 | 935 | 
37 | COc1ccc(Cn2c(-c3ccccc3)c(-c3ccccc3)c3c(=N)n(CC4CCOCC4)cnc32)cc1 [Compound 76] | 48.2 | 935 | 
38 | COc1ccc(Cn2c(-c3ccccc3)c(-c3ccccc3)c3c(=N)n(CCCO)cnc32)cc1 [Compound 77] | 96.1 | 1180 | 
39 | N=c1c2c(-c3ccccc3)c(-c3ccccc3)n(CC3CCCCC3)c2ncn1[C@H]1CC[C@H](O)CC1 [Compound 78] | 30.4 | 1480 | 
40 | N=c1c2c(-c3ccccc3)c(-c3ccccc3)n(Cc3ccc(S(N)(=O)=O)cc3)c2ncn1CC1CCOCC1 [Compound 79] | 383 | 1870 | 
41 | N=c1c2c(-c3ccccc3)c(-c3ccccc3)n(CC3CCCCC3)c2ncn1C1CCCC[C@H]1O (stereo partly shown) [Compound 80] | 21.5 | 1870 | 
42 | N=c1c2c(-c3ccccc3)c(-c3ccccc3)n(CC3CC3)c2ncn1CCCO [Compound 81] | 76.4 | 1870 | 
43 | N=c1c2c(-c3ccccc3)cn(Cc3ccccc3)c2ncn1C1CCN(Cc2ccccc2)CC1 [Compound 82] | 30.4 | 2350 | 
44 | C[C@H]([C@@H](O)c1ccccc1)n1cnc2c(c(-c3ccccc3)c(-c3ccccc3)n2Cc2ccccc2)c1=N [Compound 83] | 24.1 | 2960 | 
45 | N=c1c2c(-c3ccccc3)c(-c3ccccc3)n(Cc3ccc(OC(F)(F)F)cc3)c2ncn1[C@H]1CC[C@@H](O)CC1 [Compound 84] | 24.1 | 2960 | 
46 | N=c1c2c(-c3ccccc3)c(-c3ccccc3)n(Cc3ccccc3)c2ncn1CC1CCOC1 (stereo not shown) [Compound 85] | 24.1 | 2960 | 
47 | N=c1c2c(-c3ccccc3)c(-c3ccccc3)n(CC3CCCCC3)c2ncn1[C@H]1CC[C@@H](O)CC1 [Compound 86] | 24.1 | 3720 | 
48 | N=c1c2c(-c3ccccc3)c(-c3ccccc3)n(CCc3ccccc3)c2ncn1CC1CCOC1 (stereo not shown) [Compound 87] | 60.7 | 4690 | 
49 | N=c1c2c(-c3ccccc3)c(-c3ccccc3)n(Cc3ccccc3)c2ncn1CC1CCOCC1 [Compound 88] | 30.4 | 4690 | 
50 | N=c1c2c(-c3ccc4c(c3)OCO4)c(-c3ccc4c(c3)OCO4)n(Cc3ccccc3)c2ncn1C1CCOCC1 [Compound 89] | 24.1 | 5900 | 

— US10301314B2, “Compounds and methods for the prevention and treatment of tumor metastasis and tumorigenesis” (The United States of America, as represented by the …, priority 2011, dated 2019)
